Patent US5876694A, “Azavesamicols” (priority 1997, dated 1999)

Columns and labels:
[1] = test system: vesamicol receptor; conditions: cited from earlier work
[2] = test system: cholinergic neurotransmission; assay: In vivo anticholinergic activity in mice (spasms, respiratory distress, paralysis, death); design: key to Pharmacological activity in mice: LD: lethal dose; NR: no visible pharmacological reaction; +: visible anticholinergic effects; S: sluggishness and reduced locomotor activity
Procedure: in vivo anticholinergic activity was evaluated in mice. Blockade of cholinergic neurotransmission (or anticholinergic activity) was manifested in a rapidly developing respiratory distress, spasms and paralysis. At lethal doses these symptoms were followed by death within 10 min. As evident in Table 3, several of the compounds tested were lethal at doses as low as 5 and 10 umol/Kg. […] All of the potent compounds belong to the 1,4 series, an observation consistent with the in vitro data discussed above.
^a Group of mice (n = 2) received selected doses of the compounds by
activity: spasms, respiratory distress, paralysis. At lethal doses, death
generally occurred within 10 min following the injection.

[3] = molecular target: T1, vesamicol receptor (Tetronarce californica, UniProt P81721); assay: Inhibition of [^3 H]vesamicol binding to highly purified synaptic vesicles (electric organ of Torpedo Californica); conditions: for in vitro potency (in words): relative to comparator compounds
T1 sequence (P81721 1-515): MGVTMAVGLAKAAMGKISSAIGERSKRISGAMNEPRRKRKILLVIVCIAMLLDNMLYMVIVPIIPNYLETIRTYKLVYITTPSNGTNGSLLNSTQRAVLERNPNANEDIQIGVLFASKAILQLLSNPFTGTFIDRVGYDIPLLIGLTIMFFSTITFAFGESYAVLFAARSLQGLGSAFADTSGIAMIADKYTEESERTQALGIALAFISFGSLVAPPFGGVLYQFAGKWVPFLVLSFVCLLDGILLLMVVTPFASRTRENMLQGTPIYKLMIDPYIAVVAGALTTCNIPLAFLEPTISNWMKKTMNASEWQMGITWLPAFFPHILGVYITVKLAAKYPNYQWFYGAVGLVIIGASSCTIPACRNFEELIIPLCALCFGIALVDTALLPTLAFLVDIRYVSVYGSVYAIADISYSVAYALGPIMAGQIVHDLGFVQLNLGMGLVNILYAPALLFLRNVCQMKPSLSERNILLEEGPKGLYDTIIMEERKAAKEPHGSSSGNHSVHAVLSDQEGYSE
Text: vesicles harvested from the electric organ of Torpedo Californica.
^b Data obtained from Bahr and Parsons (1986).
IC50 values are quoted ±1 standard deviation.
^d Obtained from Efange et al. (1991).

[4] = .30 umol/Kg (so in the source) ip
[5] = .60 umol/Kg (so in the source) ip

OC(Cc1ccc(Br)cc1)CN1CCC(c2ccccc2)CC1 (racemic) [(dl)-4c]
increase in potency ([1]; 4c relative to 4a): 59 times

O[C@H]1CNCC[C@@H]1N1CCC(c2ccccc2)CC1 (relative stereo) [Compound 5, 3-Hydroxy-4-(4-phenylpiperidinyl)piperidine]
Pharmacological activity in mice [2, 4]: NR

O[C@H]1CCNC[C@@H]1N1CCC(c2ccccc2)CC1 (relative stereo) [Compound 6]
Pharmacological activity in mice [2, 4]: NR

O=C(c1ccccc1)N1CC[C@H](N2CCC(c3ccccc3)CC2)[C@@H](O)C1 (relative stereo) [Compound 9a, 1-Benzoyl-3-hydroxy-4-(4-phenylpiperidinyl)piperidine]
Pharmacological activity in mice [2, 5]: LD

O=C(c1ccccc1)N1CC[C@H](O)[C@@H](N2CCC(c3ccccc3)CC2)C1 (relative stereo) [Compound 10a, 1-Benzoyl-4-hydroxy-3-(4-phenylpiperidinyl)piperidine]
Pharmacological activity in mice [2, 4]: LD

O=C(c1ccccc1I)N1CC[C@H](O)[C@@H](N2CCC(c3ccccc3)CC2)C1 (relative stereo) [Compound 10b, 4-Hydroxy-1-(2-iodobenzoyl)-3-(4-phenylpiperidinyl)piperidine]
Pharmacological activity in mice ([2]; 2.5 umol/Kg ip): NR | Pharmacological activity in mice ([2]; 20 umol/Kg ip): +

O[C@H]1CN(Cc2ccccc2)CC[C@@H]1N1CCC(c2ccccc2)CC1 (relative stereo) [Compound 11a]
Pharmacological activity in mice ([2]; 10 umol/Kg ip): NR | Pharmacological activity in mice ([2]; 20 umol/Kg ip): +

O[C@H]1CN(Cc2ccccc2Br)CC[C@@H]1N1CCC(c2ccccc2)CC1 (relative stereo) [Compound 11b]
Pharmacological activity in mice ([2]; 5.0 umol/Kg ip): NR | Pharmacological activity in mice ([2]; 10 umol/Kg ip): + | in vitro potency (in words) [3]: slight but noticeable increase in activity

O[C@H]1CN(Cc2cccc(Br)c2)CC[C@@H]1N1CCC(c2ccccc2)CC1 (relative stereo) [Compound 11c]
Pharmacological activity in mice ([2]; 10 umol/Kg ip): NR | Pharmacological activity in mice ([2]; 20 umol/Kg ip): NR | Pharmacological activity in mice [2, 5]: NR | hind leg paralysis in mice ([2]; footnote c, .60 umol/Kg (so in the source) ip): Hind legs remained visibly paralyzed | duration of visible hind leg paralysis ([2]; postinjection, footnote c, .60 umol/Kg (so in the source) ip): at least 15 min

O[C@H]1CN(Cc2ccc(Br)cc2)CC[C@@H]1N1CCC(c2ccccc2)CC1 (relative stereo) [Compound 11d]
Pharmacological activity in mice ([2]; 10 umol/Kg ip): NR

O[C@H]1CCN(Cc2ccccc2)C[C@@H]1N1CCC(c2ccccc2)CC1 (relative stereo) [Compound 12a]
Pharmacological activity in mice ([2]; 10 umol/Kg ip): LD | in vitro potency (in words) [3]: increased potency

O[C@H]1CCN(Cc2ccc(F)cc2)C[C@@H]1N1CCC(c2ccccc2)CC1 (relative stereo) [Compound 12d]
Pharmacological activity in mice ([2]; 10 umol/Kg ip): LD | in vitro potency (in words) [3]: enhances potency

O[C@H]1CCN(Cc2ccccc2Br)C[C@@H]1N1CCC(c2ccccc2)CC1 (relative stereo) [Compound 12e]
Pharmacological activity in mice ([2]; 10 umol/Kg ip): LD

O[C@H]1CCN(Cc2cccc(Br)c2)C[C@@H]1N1CCC(c2ccccc2)CC1 (relative stereo) [Compound 12f]
Pharmacological activity in mice ([2]; 5.0 umol/Kg ip): NR | Pharmacological activity in mice ([2]; 10 umol/Kg ip): LD

O[C@H]1CCN(Cc2ccc(Br)cc2)C[C@@H]1N1CCC(c2ccccc2)CC1 (relative stereo) [Compound 12g, 1-(4-Bromobenzyl)-4-hydroxy-3-(4-phenylpiperidinyl)piperidine]
Pharmacological activity in mice ([2]; 10 umol/Kg ip): + | Pharmacological activity in mice ([2]; 20 umol/Kg ip): LD

O[C@H]1CCN(Cc2cccc(I)c2)C[C@@H]1N1CCC(c2ccccc2)CC1 (relative stereo) [Compound 12h]
Pharmacological activity in mice ([2]; 1.3 umol/Kg ip): NR | Pharmacological activity in mice ([2]; 5.0 umol/Kg ip): LD

O=[N+]([O-])c1ccc(N2CC[C@H](O)[C@@H](N3CCC(c4ccccc4)CC3)C2)cc1 (relative stereo) [Compound 12l, 4-Hydroxy-1-(4-nitrophenyl)-3-(4-phenylpiperidinyl)piperidine]
Pharmacological activity in mice ([2]; .15 umol/Kg (so in the source) ip): NR

O=C(c1ccccc1)N1CC[C@H](O)[C@@H](N2CCC(c3ccccc3)CC2)C1 [(+)-10a]
anticholinergic effects in mice ([2]; 2.5 umol/Kg): elicited anticholinergic effects | Pharmacological activity in mice ([2]; 2.5 umol/Kg ip): + | Pharmacological activity in mice ([2]; 5.0 umol/Kg ip): LD | Pharmacological activity in mice [2, 4]: LD

O=C(c1ccccc1)N1CC[C@@H](O)[C@H](N2CCC(c3ccccc3)CC2)C1 [(-)-10a]
Pharmacological activity in mice ([2]; 5.0 umol/Kg ip): + | IC50 ([3]; inhibition of [^3 H]vesamicol binding, hydrochlorides, ±1 standard deviation): 100 ± 30 nM

CC(C)(C)C1CC[C@@H](O)[C@H](N2CCC(c3ccccc3)CC2)C1 (stereo partly shown) [Compound 3]
vesamicol receptor affinity (in words) ([1]; earlier studies): potent ligands
